The results in this text go back to US9517241B2, “Amelioration of intestinal fibrosis and treatment of Crohn's disease” (THE REGENTS OF THE UNIVERSITY OF MICHIGAN, priority 2013, dated 2016).

What all share (assay type): cell-based, human
In experiment [1] the test system is fibrogenic genes (col1A1, Fn1, MLCK, ET-1) in Ccd-18co colonic myofibroblasts. As to the kind of experiment: TGFβ-stimulated colonic myofibroblasts, fibrogenic gene expression. Conditions: TGFβ1-stimulated Ccd-18co colonic myofibroblasts. The method, then:
(§1) Cells were plated at 30-40% confluence. To stimulate a fibrotic phenotype, Ccd-18co cells were serum-starved for 24 h prior to treatment with 1 ng/ml TGFβ or 1 ng/ml TGFβ and increasing doses of CARD-024 (10-1000 nM) for 48 h. Given ethanol was used to dilute CARD-024, ethanol was added to the untreated and TGFβ treated cells to a final concentration of 0.1%. For stiffness experiments, low-passage number Ccd-18co cells were seeded at 1×10^5 cells/ml on 6-well plates containing collagen-coated acrylamide gels corresponding to soft (4.3 kPa, 0.02% bisacrylamide) or stiff (28.1 kPa, 0.16%) matrices. Cells were allowed to attach to the matrix for 4 h and then the gels were transferred to new wells to avoid paracrine signaling from cells attached to the plastic well bottom. […]
(§2) RNA from Ccd-18co cells was extracted using the RNeasy kit (Qiagen, Valencia, Calif.). cDNA was generated by reverse transcription of 1 μg of total RNA using the Superscript First Strand RT kit (Invitrogen, Carlsbad, Calif.). Quantitative real-time PCR (qPCR) was performed for MLCK, IL-1β, PTGS2, ET-1, and GAPDH with the TaqMan gene expression assays (ABI, Foster City, Calif.) on a Bio-Rad iCycler real-time PCR system. […] Gene expression was normalized to GAPDH as the endogenous control, and fold-changes (RQ) relative to untreated controls were calculated using the […] (Livak and Schmittgen, 2001).

The next experiment deals with Fn-1 gene expression. Put plainly: Matrix stiffness model: expression of Fn-1. Conditions: CARD-024 treatment. The method, then:
(§3) Cells were plated at 30-40% confluence. To stimulate a fibrotic phenotype, Ccd-18co cells were serum-starved for 24 h prior to treatment with 1 ng/ml TGFβ or 1 ng/ml TGFβ and increasing doses of CARD-024 (10-1000 nM) for 48 h. Given ethanol was used to dilute CARD-024, ethanol was added to the untreated and TGFβ treated cells to a final concentration of 0.1%. For stiffness experiments, low-passage number Ccd-18co cells were seeded at 1×10^5 cells/ml on 6-well plates containing collagen-coated acrylamide gels corresponding to soft (4.3 kPa, 0.02% bisacrylamide) or stiff (28.1 kPa, 0.16%) matrices. Cells were allowed to attach to the matrix for 4 h and then the gels were transferred to new wells to avoid paracrine signaling from cells attached to the plastic well bottom. For the CARD-024 stiffness experiments, cells were plated as described above and serum-starved overnight prior to treatment with 1000 nM of CARD-024 diluted in 100% ethanol for 24 h. The 1000 nM CARD-024 dose was selected from the results of the TGFβ experiments. Since ethanol was used to dilute CARD-024, ethanol was added to untreated cells to a final concentration of 0.1%.Experiments were performed on early (4 to 7) passage cells. Cultures were routinely assayed for mycoplasma contamination.
(§4) Prior to seeding with colonic myofibroblasts, the acrylamide gels were collagen-coated. […]

Experiment [2] relates to αSMA protein expression in Ccd-18co cells. As to the kind of experiment: TGFβ-stimulated colonic myofibroblasts, αSMA protein expression (Western blot). The procedure: Colonic human myofibroblast Ccd-18co cells (CRL-1459 from ATCC) were cultured in alpha-MEM (Invitrogen, Carlsbad, Calif.) supplemented with 10% fetal bovine serum and sub-cultured weekly.
Cells were plated at 30-40% confluence. To stimulate a fibrotic phenotype, Ccd-18co cells were serum-starved for 24 h prior to treatment with 1 ng/ml TGFβ or 1 ng/ml TGFβ and increasing doses of CARD-024 (10-1000 nM) for 48 h. Given ethanol was used to dilute CARD-024, ethanol was added to the untreated and TGFβ treated cells to a final concentration of 0.1%. […]
(§5) Total protein was separated by SDS polyacrylamide gel electrophoresis (Bio-Rad,) with prestained protein markers loaded for molecular mass determination (Invitrogen, Carlsbad, Calif.), and transferred to PVDF membranes (Amersham Biosciences, Piscataway, N.J.). Membranes were blocked in 5% milk/TBST solution for 1 h at room temperature or overnight at 4° C. α-smooth muscle actin was detected by incubating the membrane overnight at 4° C. with mouse anti-human monoclonal antibody (Sigma, St. Louis, Mo.) at 1:5000 dilution in 5% milk/TBST.
(§6) pFAK was detected using a rabbit polyclonal phosphospecific antibody against Tyr-397-FAK (Invitrogen) at 1:5000. […] Autoradiographs were scanned and quantitated using ImageJ analysis software (NIH, Bethesda, Md.).
Background: In western blotting, separated proteins are transferred to a membrane and probed.

In another experiment the test system is MLCK gene expression. As to the kind of experiment: Matrix stiffness model: QRT-PCR of MLCK. Conditions: high stiffness substrate, 1000 nM CARD-024. The procedure: as §1, §2
Experiment [3] has as its system phosphorylation of focal adhesion kinase (FAK). As to the kind of experiment: Matrix stiffness model: pFAK protein expression (Western blot). Conditions: high stiffness matrix, 1000 nM CARD-024. The method, then: as §1
pFAK was detected using a rabbit polyclonal phosphospecific antibody against Tyr-397-FAK (Invitrogen) at 1:5000. […] After washing, the membranes were incubated with the appropriate secondary antibody (anti-mouse IgG+HRP or anti-rabbit IgG+HRP, Amersham, Piscataway, N.J.) for 1 h at room temperature and the signal was detected by the Pierce detection system (Pierce, Rockford, Ill.). Autoradiographs were scanned and quantitated using ImageJ analysis software (NIH, Bethesda, Md.).

The next experiment relates to ET-1 gene expression. Put plainly: Matrix stiffness model: QRT-PCR of ET-1. Conditions: high stiffness conditions, 1000 nM CARD-024. The method, then:
as §1, §2

Experiment [4] concerns Ccd-18co colonic myofibroblasts. Put plainly: Matrix stiffness model: confocal immunofluorescence of focal adhesions (vinculin) and actin stress fibers (phalloidin). Conditions: stiff substrate, 1000 nM CARD-024. The procedure: as §3, with “Since ethanol was used to dilute CARD-024, ethanol was added to untreated cells to a final concentration of 0.1%.Experiments were performed on early (4 to 7) passage cells. Cultures were routinely assayed for mycoplasma contamination.” left out
Expression of activated myofibroblast markers was analyzed by confocal immunofluorescence microscopy using the Olympus FluoView™ FV500/IX system (Olympus America, Center Valley, Pa.) at the University of Michigan Microscopy and Image Analysis Laboratory. […]

The test system is the same in experiment [5]. Put plainly: Matrix stiffness model: cell morphology, cell length and cell count (microscopy). Conditions: for dendrite length: 1000 nM CARD-024, 24 h. The method, then:
as §3
Collagen-coated polyacrylamide gels corresponding to physiological stiffnesses of 2.6 kPa to 28.1 kPa were generated using varying ratios of 40% acrylamide to 2% bisacrylamide (Bio-Rad, Hercules, Calif.) (Aplin and Hughes, 1981; Pelham and Wang, 1998). Specifically, an aqueous solution of 0.10% ammonium persulfate (Bio-Rad), 0.15% TEMED (Bio-Rad), 40% acrylamide solution was supplemented with 0.01%, 0.02%, 0.08%, or 0.16% bisacrylamide. The acrylamide gels were polymerized on a NaOH treated, amino-silanated (3-aminopropyltriethoxysilane), and glutaraldehyde treated 25 mm round glass coverslip. […] of each acrylamide/bisacrylamide solution was filter sterilized and pipetted unto a chloro-silanated glass surface treated with dichlorodimethylsilane (DCDMS) and a treated coverslip was inverted onto the acrylamide/biacrylamide solution. The acrylamide matrix was allowed to polymerize for 10 min between the two surfaces and transferred to a 6-well tissue culture plate containing sterile PBS. As determined by a series of stability experiments (data not shown), the acrylamide gels were stable for at least 1 month. […]
Cells were photographed using a Leica (Leica Microsystems Inc., Buffalo Grove, Ill.) DMIRB inverted microscope and photographed with an Olympus DP-30 camera (Center Valley, Pa.). Cell length was determined from photomicrographs using ImageJ (NIH, Bethesda, Md.). Cell count was determined from a minimum of 3 representative photographs of a 100× magnification field. […]

In experiment [6] the test system is αSMA protein expression in colonic myofibroblasts. Put plainly: Matrix stiffness model: αSMA protein expression (Western blot). Conditions: high stiffness substrate, 1000 nM CARD-024. The procedure: as §1, with “matrices.” for “matrices. Cells were allowed to attach to the matrix for 4 h and then the gels were transferred to new wells to avoid paracrine signaling from cells attached to the plastic well bottom.”
as §5, §6

Experiment [7] deals with PTGS2 (which encodes the COX-2 enzyme). As to the kind of experiment: Matrix stiffness model: QRT-PCR of PTGS2. Conditions: low and high stiffness, 1000 nM CARD-024. The procedure:
as §1, §2

The subject of the next experiment is IL-1β expression. As to the kind of experiment: Matrix stiffness model: QRT-PCR of IL-1β. Conditions: 1000 nM CARD-024, relative to untreated/low stiffness. The procedure: as §1, §2
In the next experiment the test system is colA1 gene expression. Put plainly: Matrix stiffness model: expression of colA1. Conditions: CARD-024 treatment. The method, then: as §3, §4

As to `C=C1/C(=C\C=C2/CCC[C@]3(C)[C@@H]([C@H](C)CC[C@@H](CC)C(C)C)CC[C@@H]23)C[C@@H](O)C[C@@H]1O` [CARD-024, (1S,3R)-(5Z,7E)-9,10-Secositosta-5,7,10(19)-triene-1,3-diol], in [1], the fibrogenic gene expression entry was “minimal impact on fibrogenic gene expression”. The Fn-1 expression entry in the experiment on Fn-1 gene expression is “did not repress”. The “αSMA protein expression, dose response” value in experiment [2] (Ccd-18co cells stimulated with TGFβ, 10-1000 nM CARD-024) is “attenuated αSMA protein expression in a dose-responsive manner”. Moreover, the “attenuation of αSMA protein expression” value in experiment [2] (Ccd-18co cells, 1 ng/ml TGFβ, 1000 nM CARD-024, 48 h, normalized to GAPDH, p=0.012) was found to be 2 fold. Further, in the experiment on MLCK gene expression, the MLCK expression entry was “significantly repressed MLCK expression to levels comparable to untreated cells on the low stiffness substrate”. Further, in [3], the FAK phosphorylation result is given as “inhibited FAK phosphorylation”. In addition, the ET-1 expression result in the experiment on ET-1 gene expression is given as “significantly repressed ET-1 expression in high stiffness conditions to levels indistinguishable from low stiffness conditions”. In experiment [4], the “focal adhesions (vinculin staining)” value was “inhibited focal adhesion maturation”. The dendrite length in experiment [5] (high stiffness (28.1 kPa) matrix) is 145 μm; in [5] (low stiffness (4.3 kPa) matrix), 146 μm. Further, the cell morphology entry in experiment [5] (high stiffness substrate, 1000 nM CARD-024) is “repressed the effects of matrix stiffness on cell morphology”. In experiment [5] (stiff matrix (28.1 kPa), 1000 nM CARD-024, not significant), the “reduction in cell number compared to untreated cells” value was found to be 50%. The αSMA expression result in [6] is “repressed αSMA expression on the high stiffness substrate to levels indistinguishable from the low stiffness substrate”. In experiment [7], the PTGS2 expression result is “induced PTGS2 at both low and high stiffness”. Further, the “induction of IL-1β expression” value with IL-1β expression (high stiffness, p=0.002) is given as 1.8 fold; with IL-1β expression (low stiffness) it was 4 fold. Also, in the experiment on colA1 gene expression, the colA1 expression entry was “did not repress”.
